Measured values: patent publication US9283209B2, “Oral formulations of deferasirox” (NOVARTIS AG, priority 2013, dated 2016)
≈ marks a conversion by molar mass, not a printed value. Like-named read-outs stand apart in the source and are kept apart here.

What was measured:
[1] = Thorough QT healthy volunteer study; format: in vivo, human; conditions: human, in vivo, oral, 40 mg/kg, 40 mg/kg immediately after a high-fat breakfast, 44 healthy volunteers
Method: (§1) Therefore, patients would only be exposed to the highest approved dose (40 mg/kg/day for the current formulation) after an extended period of up-titration with confirmed tolerability • the absence of a significant food effect results in a lower risk of increased exposure when the drug is taken with a meal.
(§2) Deferasirox Cmax values in healthy volunteers are generally higher than in patients. Two healthy volunteer studies in the initial registration package in 2005 were therefore reviewed for potential Cmax-related adverse events.

[2] = tested on: QT interval; assay: Thorough QT healthy volunteer study; format: in vivo, human
Method: as §1, §2

[3] = Exjade (deferasirox) solubility profile at 37 C; format: physicochemical
Description: Due to the poor solubility of Exjade™ (deferasirox), a high dose is required to achieve the desired therapeutic effect, which results in unwanted side effects, such as gastrointestinal (GI) irritation and kidney toxicity. […] To meet the high dose requirement and reduce pill burden Exjade™ (deferasirox) was developed as dispersible tablets with about 29.4% drug load. The disadvantage of this type of formulation is that the tablets have to be dispersed in water or appropriate liquid, such as in orange juice or apple juice and stirred until a fine suspension is obtained prior to administration. Further, the dispersible tablets have to be taken at least 30 minutes before food.

[4] = Patient study A0105F: Exjade after high-fat breakfast; format: in vivo, human; conditions: patients
Method: as §1

[5] = Randomized crossover bioequivalence study, Exjade dispersed in fruit juice or water; format: in vivo, human; conditions: single 20 mg/kg dose, 28 healthy volunteers, 2.5 to 5 hours after intake
Description: as §2

[6] = Study 2209: one year study in NTDT patients, GI adverse event rates; format: in vivo, human; conditions: 10 mg/kg
Description: The new Exjade formulations represent a significant improvement in patient care and support compliance with chelation therapy because of the improved pharmaceutical properties and because of the changes in composition. […] Exjade currently also contains lactose and so is not recommended in patients with rare hereditary problems of galactose intolerance, the Lapp lactase deficiency, glucose-galactose malabsorption or severe lactase deficiency. Novartis believes the exclusion of lactose and sodium lauryl sulfate in the new formulations will improve the gastrointestinal tolerability of the product.

[7] = tested on: serum creatinine, creatinine clearance; conditions: human, in vivo
Method: In addition, a new analysis of creatinine and creatinine clearance changes was performed to explore whether deferasirox-associated renal changes are a function of peak exposure (Cmax) or of overall exposure (AUC). The analysis used data from the large multicenter study 7, in which Ctrough (a proxy of AUC) and deferasirox C2h (a proxy of Cmax) was collected at multiple time points.
Based on study 7 data, the relationship between PK parameters at steady state (Ctrough and C2h) and serum creatinine was investigated by using a linear mixed model of log-transformed creatinine values (1990 observations at week 12 and 28) with patient included in model as a random effect. After log-transformation, baseline creatinine levels, C2h and Ctrough were included as predictors in the model.

[8] = 40 mg/kg after high-fat breakfast, 44 volunteers

## O=C(O)c1ccc(-n2nc(-c3ccccc3O)nc2-c2ccccc2O)cc1 [deferasirox]
[1]; read-out: Cmax (average)
  Cmax: 256 µM
[1]; read-out: Cmax (range)
  Cmax: 134 to 472 µM
[2]; [8]
  GI symptoms (diarrhea/loose stools, flatulence, and nausea): 18%
  Headache and dizziness, one patient each: 2%
[2]; healthy volunteers, doses up to 40 mg/kg
  Effect on the QT interval: no effect
[3]; aqueous buffer, pH 3, 37 C
  solubility: < 10 µg/mL
[3]; aqueous buffer, pH 4, 37 C
  solubility: < 10 µg/mL
[3]; aqueous buffer, pH 5, 37 C
  solubility: < 10 µg/mL
[3]; aqueous buffer, pH 7.5, 37 C
  solubility: 167 µg/mL (≈ 447 µM)
[3]; simulated gastric fluid, pH 1, 37 C
  solubility: < 10 µg/mL
[3]; simulated gastric fluid, pH 2, 37 C
  solubility: < 10 µg/mL
[3]; water, 37 C
  solubility: 20 µg/mL (≈ 53.6 µM)
[4]
  Change in exposure after a high-fat breakfast: nearly doubled
[5]
  HV subjects reporting loose stools: three
[6]
  GI adverse event rate: 36.4%
[7]
  Estimate, Log (C2h): 0.03287
  Estimate, Log (Ctrough): 0.06504
  Estimate, Log (baseline creatinine): 0.9593
  Estimate, Log(C2h): −0.00203
  Estimate, Log(Ctrough): 0.9346
  Estimate, Log(baseline creatinine clearance): −10.3474
  OR for a 2-fold increase in PK parameter, Log(C2h): 0.999
  OR for a 2-fold increase in PK parameter, Log(Ctrough): 1.911
  OR for a 30% increase in PK parameter, Log(Ctrough): 1.278
  Slope of linear regression between Day 1 C2h and percent change in serum creatinine at week 4: 0.03 (−0.01, 0.08)
